Test system: transgenic maize plants (ALT-1, ALT-2 and ALT-3)
Assay: Halosulfuron-methyl tolerance of maize plants
Format: in vivo
Conditions: summary of Table 4
Protocol: Zm cytoplasmic ALT-1-02 maize plants, Zm chloroplastic ALT-1-02 maize plants, Zm cytoplasmic ALT-2-02 maize plants, Zm chloroplastic ALT-2-02 maize plants, Zm cytoplasmic ALT-3-02 maize plants, Zm chloroplastic ALT-3-02 maize plants and wild-type maize plants were respectively taken and sprayed with halosulfuron-methyl (36 g ai/ha, 4-fold field concentration) and a blank solvent (water). The damage degree caused by the herbicide was measured for each plant according to the plant growth status 3 days after spraying (3 DAT), 7 days after spraying (7 DAT), 14 days after spraying (14 DAT) and 21 days after spraying (21 DAT), respectively: considering a growth status equivalent to that of the untreated plants as having a damage degree of 0%; considering conditions of leaves being partially chlorotic and yellow but substantially not affecting the plant normal growth as having a damage degree of 50%; and considering the whole plant being purple and dying as having a damage degree of 100%. […]

Compound: COC(=O)c1c(Cl)nn(C)c1S(=O)(=O)NC(=O)Nc1nc(OC)cc(OC)n1 [halosulfuron-methyl, 3-chlorine-5-(4,6-dimethoxypyrimidine-2-aminocarbonylaminosulphonyl)-1-methylpyrazole-4-carboxylic acid methyl ester]
- tolerance of the plants to the herbicide: high level of halosulfuron-methyl herbicide tolerance

— US20190029257A1, “APPLICATION FOR HERBICIDE-TOLERANT PROTEIN” (BEIJING DABEINONG TECHNOLOGY GROUP CO., LTD., priority 2016, published 2019)
